Reference: publication PMC12440775 (Frontiers in Pharmacology, 2025)
Read-outs that look alike come from different tables or passages of the source.

Experiment: Single ascending dose plasma pharmacokinetics (Part 1)
Format: in vivo, human
Details: for half-life / AUC(0-inf) / Cmax / Tmax / AUC(0-t) / Vd/F: male, human, plasma; for Vd/F: read-out: Vz/F
Method: One dose level was tested within each group. Subject groups were dosed and evaluated sequentially, beginning with the lowest-dose group and proceeding stepwise to the highest-dose group.
Blood samples were taken pre-dose (0) and at prespecified time points after dosing (Figure 1). At each time point, approximately 4.9 mL of blood was drawn into evacuated collection tubes, containing ethylene diamine tetraacetate (EDTA) anticoagulant and labeled with sample identification information. The EDTA-anticoagulated blood samples were immediately placed on ice and centrifuged at 4 °C and approximately 2000–4,000 g for approximately 10 min in a refrigerated centrifuge as soon as possible after collection. The harvested plasma was split into two aliquots, immediately placed in appropriately labeled tubes, and stored at −20 °C or below until shipment.
Standard formulas for non-compartmental pharmacokinetic analysis provided by WinNonlin were used in determination of the maximum concentration (Cmax), time to maximum concentration (tmax), oral clearance (CL/F), mean residence time (MRTpo), and apparent volume distribution in terminal phase (Vz/F). The area under the plasma concentration–time curve (AUC) was calculated using a linear up/log down trapezoidal algorithm. The predicted concentration at the last time-point with quantifiable concentration was used for extrapolation of AUC. The fraction excreted as unchanged drug in urine (fe) was calculated as the percentage of the amount of drug excreted in urine as unchanged drug (Aet1–t2) compared to the administered dose ([Huang et al., 2008b]).
The power model was used for the analysis of dose proportionality in terms of AUC0– ∞ and Cmax. The model is described using the following equation: Ykm = α•Dk ^β •ekm. […] Dose linearity requires that β equals 1. […] Statistical analysis was performed using the SAS® program system (version 8.2, Cary, NC) ([Huang et al., 2008b]).

## C=C[C@@H]1C[C@]1(NC(=O)[C@@H]1C[C@@H](Oc2cc(-c3csc(NC(=O)C(C)C)n3)nc3c(Br)c(OC)ccc23)CN1C(=O)[C@@H](NC(=O)OC1CCCC1)C(C)(C)C)C(=O)O [FDV, Faldaprevir]
higher-dose groups
  Inter-subject variability, gCV of AUC0–∞: 60–80%
oral, range over single doses of 4–1,200 mg, read-out: gMean t1/2
  half-life: 15.5 to 39.2 h
oral, range over single doses of 4–1,200 mg, read-out: geometric mean (gMean) AUC0-inf
  AUC(0-inf): 254 to 402000 ng·h/mL
oral, range over single doses of 4–1,200 mg, read-out: geometric mean (gMean) Cmax
  Cmax: 3.57 to 16500 ng/mL
oral, range over single doses of 4–1,200 mg, read-out: median tmax
  Tmax: 4 to 14 h
po, 4 mg
  AUC(0-t): 201 ng·h/mL
  Vd/F: 868 L
po, 4 mg, FDV 4 mg single oral dose, fasted, gMean (gCV%), read-out: t½ (converted)
  half-life: ~39 h
po, 4 mg, read-out: AUC0–∞
  AUC(0-inf): 254 ng·h/mL
po, 4 mg, read-out: Cmax
  Cmax: 3.6 ng/mL
po, 4 mg, read-out: tmax
  Tmax: 14 h
po, 16 mg
  AUC(0-t): 1030 ng·h/mL
  Vd/F: 600 L
po, 16 mg, FDV 16 mg single oral dose, fasted, gMean (gCV%), read-out: t½ (converted)
  half-life: 31.8 h
po, 16 mg, read-out: Cmax
  Cmax: 22.8 ng/mL
po, 16 mg, read-out: tmax
  Tmax: 8 h
po, 48 mg
  AUC(0-t): 3280 ng·h/mL
  Vd/F: 640 L
po, 48 mg, FDV 48 mg single oral dose, fasted, gMean (gCV%), read-out: t½ (converted)
  half-life: 37.7 h
po, 48 mg, read-out: AUC0–∞
  AUC(0-inf): 3980 ng·h/mL
po, 48 mg, read-out: Cmax
  Cmax: 86.6 ng/mL
po, 48 mg, read-out: tmax
  Tmax: 8 h
po, 120 mg
  AUC(0-t): 9660 ng·h/mL
  Vd/F: 435 L
po, 120 mg, FDV 120 mg single oral dose, fasted, gMean (gCV%), read-out: t½ (converted)
  half-life: 27.4 h
po, 120 mg, read-out: AUC0–∞
  AUC(0-inf): 10700 ng·h/mL
po, 120 mg, read-out: Cmax
  Cmax: 344 ng/mL
po, 120 mg, read-out: tmax
  Tmax: 7 h
po, 240 mg
  AUC(0-t): 36100 ng·h/mL
  Vd/F: 200 L
po, 240 mg, FDV 240 mg single oral dose, fasted, gMean (gCV%), read-out: t½ (converted)
  half-life: 22.2 h
po, 240 mg, read-out: AUC0–∞
  AUC(0-inf): 37400 ng·h/mL
po, 240 mg, read-out: Cmax
  Cmax: 2070 ng/mL
po, 240 mg, read-out: tmax
  Tmax: 4 h
po, 480 mg
  AUC(0-t): 74100 ng·h/mL
  Vd/F: 278 L
po, 480 mg, FDV 480 mg single oral dose, fasted, gMean (gCV%), read-out: t½ (converted)
  half-life: 33.3 h
po, 480 mg, read-out: AUC0–∞
  AUC(0-inf): 80700 ng·h/mL
po, 480 mg, read-out: Cmax
  Cmax: 4300 ng/mL
po, 480 mg, read-out: tmax
  Tmax: 4 h
po, 800 mg
  AUC(0-t): 127000 ng·h/mL
  Vd/F: 141 L
po, 800 mg, FDV 800 mg single oral dose, fasted, gMean (gCV%), read-out: t½ (converted)
  half-life: ~16 h
po, 800 mg, read-out: AUC0–∞
  AUC(0-inf): 128000 ng·h/mL
po, 800 mg, read-out: Cmax
  Cmax: 6630 ng/mL
po, 800 mg, read-out: tmax
  Tmax: 9 h
po, 1200 mg
  AUC(0-t): 397000 ng·h/mL
  Vd/F: 65 L
po, 1200 mg, FDV 1,200 mg single oral dose, fasted, gMean (gCV%), read-out: t½ (converted)
  half-life: ~16 h
po, 1200 mg, read-out: AUC0–∞
  AUC(0-inf): 402000 ng·h/mL
po, 1200 mg, read-out: Cmax
  Cmax: 16500 ng/mL
po, 1200 mg, read-out: tmax
  Tmax: 8 h
Most of the lower-dose groups
  Inter-subject variability, gCV of AUC0–∞: approximately 30%
